Measurements from patent US8658604B2, “Template-fixed beta-hairpin peptidomimetics with protease inhibitory activity” (Polyphor Ltd, priority 2005, dated 2014).
Where a SMILES comes first, the peptide text is derived from it.

Legend:
[1] = target: Chymotrypsin, from human pancreas (Homo sapiens, UniProt P17538); experiment: Enzymatic assay, chymotrypsin
Chymase, from human skin = target: T1, Chymase, from human skin (Homo sapiens, UniProt P23946); experiment: Enzymatic assay, chymase
T1 sequence (P23946 22-247): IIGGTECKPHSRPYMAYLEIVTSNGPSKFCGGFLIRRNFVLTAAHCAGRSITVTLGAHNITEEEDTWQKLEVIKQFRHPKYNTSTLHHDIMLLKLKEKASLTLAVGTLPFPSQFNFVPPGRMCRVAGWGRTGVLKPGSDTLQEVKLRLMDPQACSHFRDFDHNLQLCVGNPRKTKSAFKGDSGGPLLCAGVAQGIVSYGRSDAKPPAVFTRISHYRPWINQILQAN

[2] = target: Thrombin, from Human Plasma (Homo sapiens, UniProt P00734); experiment: Enzymatic assay, thrombin
[3] = system: human red blood cells (hRBC); experiment: Hemolysis
[4] = system: Tryptase, from human lung; experiment: Enzymatic assay, tryptase; details: at 100 μM
[5] = target: T2, CathepsinG, from human neutrophils (Homo sapiens, UniProt P08311); experiment: Enzymatic assay, cathepsin G; details: for IC50: Cathepsin G IC50
T2 sequence (P08311 21-244): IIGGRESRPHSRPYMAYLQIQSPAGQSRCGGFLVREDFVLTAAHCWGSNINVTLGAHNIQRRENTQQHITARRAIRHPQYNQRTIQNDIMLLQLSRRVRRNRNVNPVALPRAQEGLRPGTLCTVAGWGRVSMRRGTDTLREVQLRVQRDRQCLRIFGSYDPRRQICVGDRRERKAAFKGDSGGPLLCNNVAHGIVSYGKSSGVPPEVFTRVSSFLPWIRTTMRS

[6] = target: T3, Elastase from human neutrophils (Homo sapiens, UniProt P08246); experiment: Enzymatic assay, elastase; details: Elastase IC50
T3 sequence (P08246 30-267): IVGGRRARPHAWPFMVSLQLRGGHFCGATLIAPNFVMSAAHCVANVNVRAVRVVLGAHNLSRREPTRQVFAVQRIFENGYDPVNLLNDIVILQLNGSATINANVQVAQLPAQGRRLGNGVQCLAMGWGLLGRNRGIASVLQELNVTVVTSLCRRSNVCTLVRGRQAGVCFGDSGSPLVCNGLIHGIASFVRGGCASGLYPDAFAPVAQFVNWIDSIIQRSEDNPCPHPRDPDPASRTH

[7] = assay type: in vitro ADME; details: 10 µM
Procedure: 405 μl of plasma/albumin solution were placed in a polypropylene (PP) tube and spiked with 45 μl of compound from a […] solution B, derived from 135 μl of PBS and 15 μl of 1 mM peptide in PBS, pH 7.4. 150 μl aliquots were transferred into individual wells of the 10 kDa filter plate (Millipore MAPPB 1010 Biomax membrane). For “0 minutes controls”: 270 μl of PBS were placed in a PP tube and 30 μl of stock solution B was added and vortexed. 150 μl of control solution were placed into one well of the filter plate and served as “filtered control”.
Further 150 μl of control solution were placed directly into a receiver well (reserved for filtrate) and served as “not-filtered control”. The entire plate including evaporation lid was incubated for 60 min at 37° C. Plasma samples (rat plasma: Harlan Sera lab UK, human plasma: Blutspendezentrum Zürich) were centrifuged at least for 2 h at 4300 rpm (3500 g) and 15° C. in order to yield 100 filtrate. For “serum albumin”-samples (freshly prepared human albumin: Sigma A-4327, rat albumin: Sigma A-6272, all at 40 mg/ml concentration in PBS) approximately 1 hour of centrifugation was sufficient. The filtrates in the receiver PP plate were analysed by LC/MS as follower follows: Column: Jupiter C18 (Phenomenex), mobile phases: (A) 0.1% formic acid in water and (B) acetonitrile, gradient: 5%-100% (B) in 2 minutes, electrospray ionization, MRM detection (triple quadrupole). The peak areas were determined and triplicate values were averaged. The binding was expressed in percent of the (filtered and not-filtered time point 0 min) control 1 and 2 by: 100−(100×T60/T0). The average from these values was then calculated.

[8] = target: Coagulation Factor Xa, from uman plasma (Homo sapiens, UniProt P00742); experiment: Enzymatic assay, coagulation factor Xa
Sequence of Coagulation Factor Xa, from uman plasma (P00742 235-488 limits assumed): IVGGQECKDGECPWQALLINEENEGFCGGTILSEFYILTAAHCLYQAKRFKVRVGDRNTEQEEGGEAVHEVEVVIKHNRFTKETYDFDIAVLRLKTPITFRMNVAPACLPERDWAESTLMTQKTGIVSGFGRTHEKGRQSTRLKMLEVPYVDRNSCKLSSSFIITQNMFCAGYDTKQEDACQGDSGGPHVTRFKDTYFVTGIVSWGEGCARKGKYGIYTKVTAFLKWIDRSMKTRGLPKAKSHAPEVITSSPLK
Sequence of Coagulation Factor Xa, from uman plasma (P00742 41-179 limits assumed): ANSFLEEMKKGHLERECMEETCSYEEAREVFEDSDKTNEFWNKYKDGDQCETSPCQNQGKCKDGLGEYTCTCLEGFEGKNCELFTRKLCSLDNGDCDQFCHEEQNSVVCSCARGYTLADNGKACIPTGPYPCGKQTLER

[9] = target: Urokinase from human urine (Homo sapiens, UniProt P00749); experiment: Enzymatic assay, urokinase
HELA cells (Acc57) = experiment: Cytotoxicity assay (MTT reduction), HELA cells; assay type: cell-based; details: Hela cells
Summary of the method: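 HeLa cells were grown for 24 h, then exposed to peptides at 12.5, 25 and 50 μM in triplicate for 48 h at 37 °C. MTT reduction was read at 595 nm and growth % calculated relative to time-zero wells. LC50 interpolated by linear trend at −50% growth, GI50 at 50%.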

[10] = target: Trypsin, from human pancreas (Homo sapiens, UniProt P07477); experiment: Enzymatic assay, trypsin; details: at 100 μM

Sequence of Chymotrypsin, from human pancreas (P17538 19-263): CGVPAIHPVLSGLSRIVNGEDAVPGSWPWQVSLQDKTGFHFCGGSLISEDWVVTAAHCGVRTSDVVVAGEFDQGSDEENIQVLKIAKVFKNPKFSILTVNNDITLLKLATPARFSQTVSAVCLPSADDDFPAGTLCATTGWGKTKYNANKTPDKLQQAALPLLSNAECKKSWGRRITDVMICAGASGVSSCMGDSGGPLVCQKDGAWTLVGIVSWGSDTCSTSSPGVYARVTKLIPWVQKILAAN

Structure (SMILES)	Chymotrypsin at 100 μM % [1]	Chymase at 100 μM % (Chymase, from human skin)	Thrombin at 100 μM % [2]	Hemolysis at 100 μM % [3]	Tryptase at 100 μM % [4]	IC50 [5]	IC50 [6]	Stability human Plasma t1/2 [7]	Stability rat Plasma t1/2 [7]	FXa at 100 μM % [8]	Urokinase at 100 μM % [9]	Cytotoxicity LC50/GI50 Hela cells (HELA cells (Acc57))	Trypsin at 100 μM % [10]	IC50 [1]	Tryptase At 100 μM % [4]	Cathepsin G at 100 μM % ([5]; at 100 μM)
CCCC[C@@H]1NC(=O)[C@H]([C@@H](C)O)NC(=O)[C@@H]2CSSC[C@H](NC(=O)[C@H]([C@@H](C)CC)NC(=O)[C@@H]3CCCN3C(=O)[C@@H]3CCCN3C(=O)[C@H](CC(=O)O)NC(=O)[C@H](CO)NC1=O)C(=O)N[C@@H](Cc1ccc(O)cc1)C(=O)N1CCC[C@@H]1C(=O)N1CCC[C@H]1C(=O)N[C@@H](Cc1ccccc1)C(=O)N2 [Ex. 23] (HELM PEPTIDE1{F.C.T.[Nle].S.D.P.P.I.C.Y.[dP].P}$PEPTIDE1,PEPTIDE1,2:R3-10:R3|PEPTIDE1,PEPTIDE1,1:R1-13:R2$$$V2.0)	4%	60%	0%	0%	29%	0.038 µM	> 100 µM	5 h	5 h	11%	9%	51 µM	90%			
CC[C@H](C)[C@@H]1NC(=O)[C@@H]2CCCN2C(=O)[C@@H]2CCCN2C(=O)[C@H](CC(=O)O)NC(=O)[C@H](CO)NC(=O)[C@H](CCCCN)NC(=O)[C@H]([C@@H](C)O)NC(=O)[C@@H]2CSSC[C@H](NC1=O)C(=O)N[C@@H](CO)C(=O)N1CCC[C@@H]1C(=O)N[C@@H](CCC(=O)O)C(=O)N[C@@H](Cc1ccccc1)C(=O)N2 [Ex. 64] (HELM PEPTIDE1{F.C.T.K.S.D.P.P.I.C.S.[dP].E}$PEPTIDE1,PEPTIDE1,2:R3-10:R3|PEPTIDE1,PEPTIDE1,1:R1-13:R2$$$V2.0)	0%	0%	2.3%	0%	0%	0.045 µM	> 100 µM			0%	3%	59 µM	87%			
CCCC[C@@H]1NC(=O)[C@H](CC(=O)O)NC(=O)[C@H]2CCCN2C(=O)[C@H](Cc2ccc(O)cc2)NC(=O)[C@@H]2CSSC[C@H](NC1=O)C(=O)N[C@@H]([C@@H](C)O)C(=O)N[C@@H](C)C(=O)N[C@@H](CO)C(=O)N[C@@H]([C@@H](C)CC)C(=O)N1CCC[C@H]1C(=O)N1CCC[C@H]1C(=O)N[C@@H](CCC(N)=O)C(=O)N2 [Ex. 121] (HELM PEPTIDE1{[Nle].C.T.A.S.I.P.P.Q.C.Y.[dP].D}$PEPTIDE1,PEPTIDE1,2:R3-10:R3|PEPTIDE1,PEPTIDE1,1:R1-13:R2$$$V2.0)		1.2%	0%		4.6%	11.2 µM	0.018 µM	5 h	5 h	5.6%	5.7%	49 µM	12.8%	27.5 µM		
C[C@@H]1NC(=O)[C@H]([C@@H](C)O)NC(=O)[C@@H]2CSSC[C@H](NC(=O)[C@H](CCC(N)=O)NC(=O)[C@@H]3CCCN3C(=O)[C@@H]3CCCN3C(=O)[C@H](CC3CCCCC3)NC(=O)[C@H](CO)NC1=O)C(=O)N[C@@H](CCC(N)=O)C(=O)N1CCC[C@@H]1C(=O)N1CCC[C@H]1C(=O)N[C@@H](CCc1ccccc1)C(=O)N2 [Ex. 158] (HELM PEPTIDE1{[O=C([C@H](CCc1ccccc1)N[*:1])[*:2]].C.T.A.S.[Cha].P.P.Q.C.Q.[dP].P}$PEPTIDE1,PEPTIDE1,2:R3-10:R3|PEPTIDE1,PEPTIDE1,1:R1-13:R2$$$V2.0)	93%	0%	2%				0.0071 µM	5 h	5 h	1%	10%		8%		13%	55 at 100%
